# Legend:
# Assay type in all cases: in vivo
# Conditions in all cases: wettable powder applied 3 days after transplanting, judged after 25 days
# Cyperus serotinus = assay: Test Example 1: herbicidal effects, paddy-field pot test
# Method in brief: (§1)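 Greenhouse, flooded paddy soil; weeds from seed (top 1 cm), C. serotinus from germinated tubers, rice transplanted at 2.2-leaf stage. WP diluted in water, applied to pot day 3 post-transplant. Scored day 25 post-treatment, 0–5 inhibition scale.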
# [1] = system: annual broad-leaved weeds (Lindernia spp., Rotala indica); assay: as above
# Method in brief: as §1
# Scirpus joncoides = assay: as above
# Method in brief: as §1
# [2] = system: barnyardgrass (Echinochloa oryzicola Vasing.); assay: as above
# Method in brief: as §1
# [3] = system: transplanted paddy-field rice; assay: Test Example 1: crop injury against transplanted paddy-field rice
# Method in brief: as §1
SMILES,Herbicidal effects Cyperus serotinus (Cyperus serotinus; chemical dosage 10 g/a),Herbicidal effects Cyperus serotinus (Cyperus serotinus; chemical dosage 20 g/a),Herbicidal effects Broad leaf ([1]; chemical dosage 10 g/a),Herbicidal effects Broad leaf ([1]; chemical dosage 20 g/a),Herbicidal effects Scirpus joncoides (Scirpus joncoides; chemical dosage 10 g/a),Herbicidal effects Scirpus joncoides (Scirpus joncoides; chemical dosage 20 g/a),Herbicidal effects Barnyard grass ([2]; chemical dosage 10 g/a),Herbicidal effects Barnyard grass ([2]; chemical dosage 20 g/a),Crop injury against transplanted rice ([3]; chemical dosage 10 g/a),Crop injury against transplanted rice ([3]; chemical dosage 20 g/a),Herbicidal effects Cyperus serotinus (Cyperus serotinus; chemical dosage 12.5 g/a),Herbicidal effects Cyperus serotinus (Cyperus serotinus; chemical dosage 25 g/a),Herbicidal effects Broad leaf ([1]; chemical dosage 12.5 g/a),Herbicidal effects Broad leaf ([1]; chemical dosage 25 g/a),Herbicidal effects Scirpus joncoides (Scirpus joncoides; chemical dosage 12.5 g/a),Herbicidal effects Scirpus joncoides (Scirpus joncoides; chemical dosage 25 g/a),Herbicidal effects Barnyard grass ([2]; chemical dosage 12.5 g/a),Herbicidal effects Barnyard grass ([2]; chemical dosage 25 g/a),Crop injury against transplanted rice ([3]; chemical dosage 12.5 g/a),Crop injury against transplanted rice ([3]; chemical dosage 25 g/a)
COc1cccc(C)c1Oc1nnc(Cl)cc1O [Example 267],5 (Growth inhibition rate; 91 to 100%),5 (Growth inhibition rate; 91 to 100%),5 (Growth inhibition rate; 91 to 100%),5 (Growth inhibition rate; 91 to 100%),4 (Growth inhibition rate; 71 to 90%),5 (Growth inhibition rate; 91 to 100%),1 (Growth inhibition rate; 11 to 30%),2 (Growth inhibition rate; 31 to 50%),0 (Growth inhibition rate; 0 to 10%),0 (Growth inhibition rate; 0 to 10%),–,–,–,–,–,–,–,–,–,–
CCc1cccc(CC)c1Oc1nnc(Cl)cc1O [Example 268],–,–,–,–,–,–,–,–,–,–,5 (Growth inhibition rate; 91 to 100%),5 (Growth inhibition rate; 91 to 100%),5 (Growth inhibition rate; 91 to 100%),5 (Growth inhibition rate; 91 to 100%),5 (Growth inhibition rate; 91 to 100%),5 (Growth inhibition rate; 91 to 100%),0 (Growth inhibition rate; 0 to 10%),1 (Growth inhibition rate; 11 to 30%),1 (Growth inhibition rate; 11 to 30%),1 (Growth inhibition rate; 11 to 30%)
CCc1cccc(C2CC2)c1Oc1nnc(Cl)cc1O [Example 269],5 (Growth inhibition rate; 91 to 100%),5 (Growth inhibition rate; 91 to 100%),5 (Growth inhibition rate; 91 to 100%),5 (Growth inhibition rate; 91 to 100%),5 (Growth inhibition rate; 91 to 100%),5 (Growth inhibition rate; 91 to 100%),2 (Growth inhibition rate; 31 to 50%),3 (Growth inhibition rate; 51 to 70%),3 (Growth inhibition rate; 51 to 70%),5 (Growth inhibition rate; 91 to 100%),–,–,–,–,–,–,–,–,–,–
CC(C)c1cccc(C2CC2)c1Oc1nnc(Cl)cc1O [Example 272],4 (Growth inhibition rate; 71 to 90%),4 (Growth inhibition rate; 71 to 90%),5 (Growth inhibition rate; 91 to 100%),5 (Growth inhibition rate; 91 to 100%),4 (Growth inhibition rate; 71 to 90%),5 (Growth inhibition rate; 91 to 100%),0 (Growth inhibition rate; 0 to 10%),0 (Growth inhibition rate; 0 to 10%),0 (Growth inhibition rate; 0 to 10%),0 (Growth inhibition rate; 0 to 10%),–,–,–,–,–,–,–,–,–,–
CC(C)(C)c1cccc(C2CC2)c1Oc1nnc(Cl)cc1O [Example 274],4 (Growth inhibition rate; 71 to 90%),4 (Growth inhibition rate; 71 to 90%),5 (Growth inhibition rate; 91 to 100%),5 (Growth inhibition rate; 91 to 100%),3 (Growth inhibition rate; 51 to 70%),4 (Growth inhibition rate; 71 to 90%),3 (Growth inhibition rate; 51 to 70%),3 (Growth inhibition rate; 51 to 70%),0 (Growth inhibition rate; 0 to 10%),0 (Growth inhibition rate; 0 to 10%),–,–,–,–,–,–,–,–,–,–
Oc1cc(Cl)nnc1Oc1c(C2CC2)cccc1C1CC1 [Example 275],5 (Growth inhibition rate; 91 to 100%),5 (Growth inhibition rate; 91 to 100%),5 (Growth inhibition rate; 91 to 100%),5 (Growth inhibition rate; 91 to 100%),5 (Growth inhibition rate; 91 to 100%),5 (Growth inhibition rate; 91 to 100%),4 (Growth inhibition rate; 71 to 90%),4 (Growth inhibition rate; 71 to 90%),1 (Growth inhibition rate; 11 to 30%),3 (Growth inhibition rate; 51 to 70%),–,–,–,–,–,–,–,–,–,–
COc1cccc(C2CC2)c1Oc1nnc(Cl)cc1O [Example 276],5 (Growth inhibition rate; 91 to 100%),5 (Growth inhibition rate; 91 to 100%),5 (Growth inhibition rate; 91 to 100%),5 (Growth inhibition rate; 91 to 100%),3 (Growth inhibition rate; 51 to 70%),4 (Growth inhibition rate; 71 to 90%),3 (Growth inhibition rate; 51 to 70%),4 (Growth inhibition rate; 71 to 90%),0 (Growth inhibition rate; 0 to 10%),0 (Growth inhibition rate; 0 to 10%),–,–,–,–,–,–,–,–,–,–
CCOc1cccc(C2CC2)c1Oc1nnc(Cl)cc1O [Example 277],5 (Growth inhibition rate; 91 to 100%),5 (Growth inhibition rate; 91 to 100%),5 (Growth inhibition rate; 91 to 100%),5 (Growth inhibition rate; 91 to 100%),–,5 (Growth inhibition rate; 91 to 100%),0 (Growth inhibition rate; 0 to 10%),1 (Growth inhibition rate; 11 to 30%),0 (Growth inhibition rate; 0 to 10%),0 (Growth inhibition rate; 0 to 10%),–,–,–,–,–,–,–,–,–,–
Cc1cc(C)cc(Oc2nnc(Cl)cc2O)c1 [Example 281],–,–,–,–,–,–,–,–,–,–,5 (Growth inhibition rate; 91 to 100%),5 (Growth inhibition rate; 91 to 100%),5 (Growth inhibition rate; 91 to 100%),5 (Growth inhibition rate; 91 to 100%),2 (Growth inhibition rate; 31 to 50%),3 (Growth inhibition rate; 51 to 70%),0 (Growth inhibition rate; 0 to 10%),0 (Growth inhibition rate; 0 to 10%),0 (Growth inhibition rate; 0 to 10%),0 (Growth inhibition rate; 0 to 10%)
Cc1cc(Oc2nnc(Cl)cc2O)cc(C(C)C)c1 [Example 282],–,–,–,–,–,–,–,–,–,–,4 (Growth inhibition rate; 71 to 90%),5 (Growth inhibition rate; 91 to 100%),5 (Growth inhibition rate; 91 to 100%),5 (Growth inhibition rate; 91 to 100%),3 (Growth inhibition rate; 51 to 70%),4 (Growth inhibition rate; 71 to 90%),0 (Growth inhibition rate; 0 to 10%),0 (Growth inhibition rate; 0 to 10%),0 (Growth inhibition rate; 0 to 10%),0 (Growth inhibition rate; 0 to 10%)
